Patent publication US8563565B2, “Pyrazoloquinoline derivatives” (Eisai R&D Management Co., Ltd., priority 2011, dated 2013)
Where two headings read alike, the source gives them in different places.

Columns and labels:
[1] = biological target: T1, human recombinant PDE9 protein (Homo sapiens, UniProt O76083); experiment: PDE9 inhibitory activity test (measurement of PDE9 inhibitory action, [3H]-cGMP); type: biochemical; conditions: PDE9 IC50, human recombinant PDE9, 30° C., 10 min
T1 construct: His-tag (inferred from the Ni column purification; a myc His-tag vector is named only for the HEK293 expression check); made in house; host or cells: silkworm (pYNG vector, Katakura Industries)
Text: 1) Preparation of a Human Recombinant PDE9 Protein
An hsPDE9A 1cDNA fragment was amplified by being based on a base sequence (Accession No.: AF048837) of the hsPDE9A1 registered on GenBank data base, and by using the following sequences (Hokkaido System Science Co., Ltd.) as a primer and Human hippocampus cDNA library (Clontech Laboratories, Inc.) as a template DNA, and using Pfu50 DNA polymerase (Invitrogen Corp.), and by a polymerase chain reaction (PCR) of the following condition.
The condition of PCR: [96° C., 5 min]×1 cycle, [(96° C., 10 sec), (57° C., 5 sec), (72° C., 2 min)]×30 cycles
The obtained hsPDE9A 1 cDNA fragment was incorporated in a TOPO-TA cloning vector (Invitrogen Corp.), and the base sequence was checked; and thereafter, the resultant was transfected in a pcDNA 3.1/myc His-tag vector (Invitrogen Corp.) to thereby make a human PDE9 expression vector for mammal cells. The human PDE9 expression vector for mammal cells was transfected with transient expression to an HEK293 cell by using a LIPOFETAMINE 2000 Reagent (Gibco). It was confirmed by Western blot method that the PDE9A expressed in the HEK293 cell, and then, the human PDE9A 1cDNA fragment was transfected in a pYNG vector (Katakura Industries Co., Ltd.) to thereby make an expression vector for insect cells. A supernatant of homogenized silk worm in which a large amount of PDE9 was expressed was purified by an equilibrated Ni column using a buffer A (20 mmol/L Tris-HCl, pH: 8.0, 1 mmol/L DTT, 10 mmol/L imidazole). After 1 hour of mixing of the supernatant and the Ni column, cleaning was carried out using a buffer B (20 mmol/L Tris-HCl, pH: 8.0, 1 mmol/L […]), and elution was carried out using a buffer C (20 mmol/L Tris-HCl, pH: 8.0, 1 mmol/L DTT, 100 mmol/L imidazole). An elution fraction was preparatively collected to thereby obtain a PDE9 enzyme solution.
2) Measurement of PDE9 Inhibitory Action
To 100 μL of a buffer D (40 mmol/L Tris-HCl, pH: 7.4, 10 mmol/L MgCl2, 1 mM DTT, 2 μM cGMP) solution containing [^3H]-cGMP ([…]/mL), 10 μL of a compound solution for evaluation (a solution in which a compound was dissolved in DMSO and diluted so that the DMSO concentration became 5%) and 90 μL of a solution prepared by diluting the PDE9 enzyme solution prepared in the above with a buffer E (40 mmol/L Tris-HCl, pH: 7.4, 10 mmol/L MgCl2, 1 mM DTT, 1 mmol/L EGTA) were added under ice cooling. The resultant mixed solution was incubated at 30° C. for 10 min, and thereafter heated for 2 min in boiled water to stop the enzyme reaction of the PDE9. Then, the resultant was returned to room temperature; 50 μL of 5′-Nucleotidase (Biomol GmbH, 10 units/mL) was added thereto; and the resultant was incubated at 30° C. for 10 min to thereby convert [^3H]-5′-GMP formed in the previous reaction to [^3H]-guanosine. 500 μL of an anion exchange resin (Bio-Rad AG1-X2 resin, mesh size: 200-400, H2O:resin=2:1) was added to the resultant reaction liquid, and allowed to stand for 10 min, and thereafter centrifuged (2,000 rpm, 10 min); and a supernatant in which the [^3H]-guanosine was present was transferred to a LumaPlate (PerkinElmer, Inc.), and the radioactivity was measured by a TopCount NXT microplate scintillation and luminescence counter (PerkinElmer, Inc.).
The inhibition percentage of the evaluation compound was calculated using the following expression, taking the radioactivity of a control containing no evaluation compound to be (A), the radioactivity of a blank containing no enzyme to be (B), and the radioactivity of the evaluation compound to be (C). Inhibition percentage=100−{[(C)−(B)]/[(A)−(B)]}×100(%)
The IC50 value for PDE9 of the evaluation compound was determined from inhibition percentage for various concentrations.

[2] = system: cGMP in the cerebrospinal fluid; experiment: Effect on rodent cerebrospinal fluid cGMP (rat); type: in vivo; conditions: po, read-out: % CSF cGMP increase from vehicle control
Protocol: (§1) 3) Effect on Rodent Cerebrospinal Fluid cGMP
(§2) The test compound was administered to ICR male mice (Charles River Laboratories Japan, Inc.), Sprague-Dawley male rats (SD) (Charles River Laboratories Japan, Inc.) or Long-Evans male rats (LE) (Institute for Animal Reproduction), and the cerebrospinal fluid was then collected under pentobarbital anesthesia and stored at −20° C. cGMP in the cerebrospinal fluid was measured in accordance with the acetylation EIA procedure of cGMP EIA kit (GE Healthcare) or the non-acetylation procedure of cGMP EIA kit (Cayman) The result was an increase (C) in the amount of cGMP of the test compound-administered group (B) relative to the amount of cGMP of the vehicle-administered group (A), and was calculated using the following formula cGMP increase(C)=[(B)−(A)]/(A)×100(%)

cGMP in the hippocampus = experiment: Effect on rodent hippocampal cGMP; type: in vivo, rat; conditions: po, read-out: % hippocampal cGMP increase from vehicle control
Protocol: 4) Effect on Rodent Hippocampal cGMP
The test compound was administered to Sprague-Dawley male rats (Charles River Laboratories Japan, Inc.) or Long-Evans male rats (Institute for Animal Reproduction) and then the animals were sacrificed with microwave under pentobarbital anesthesia, and the hippocampus was extracted. After measuring the wet weight, the hippocampus was frozen with liquid nitrogen and stored at −80° C. In the measurement of cGMP in the hippocampus, a 0.5 M perchloric acid/1 mM EDTA solution was added at 5% (w/v) based on the wet weight, and the mixture was homogenized. After the homogenization, the homogenate was centrifuged (10000 rpm, 15 min), and the supernatant was collected. The collected supernatant was neutralized with a 2 M potassium bicarbonate solution and centrifuged (13000 rpm, 10 min). The cGMP concentration in the supernatant was measured in accordance with the non-acetylation EIA procedure of cGMP EIA kit (GE Healthcare). The result was an increase (C) in the amount of cGMP of the test compound-administered group (B) relative to the amount of cGMP of the vehicle-administered group (A), and was calculated using the following formula. cGMP increase(C)=[(B)−(A)]/(A)×100(%)

[3] = system: cGMP in the cerebrospinal fluid; experiment: Effect on rodent cerebrospinal fluid cGMP (mouse); type: in vivo, ICR male mice; conditions: 10 mg/kg p.o., sampling time 0.5 hr
Protocol: as §1, §2

[4] = rat(LE), 30 mg/kg p.o., sampling time 1 hr

T1 sequence (O76083 whole entry): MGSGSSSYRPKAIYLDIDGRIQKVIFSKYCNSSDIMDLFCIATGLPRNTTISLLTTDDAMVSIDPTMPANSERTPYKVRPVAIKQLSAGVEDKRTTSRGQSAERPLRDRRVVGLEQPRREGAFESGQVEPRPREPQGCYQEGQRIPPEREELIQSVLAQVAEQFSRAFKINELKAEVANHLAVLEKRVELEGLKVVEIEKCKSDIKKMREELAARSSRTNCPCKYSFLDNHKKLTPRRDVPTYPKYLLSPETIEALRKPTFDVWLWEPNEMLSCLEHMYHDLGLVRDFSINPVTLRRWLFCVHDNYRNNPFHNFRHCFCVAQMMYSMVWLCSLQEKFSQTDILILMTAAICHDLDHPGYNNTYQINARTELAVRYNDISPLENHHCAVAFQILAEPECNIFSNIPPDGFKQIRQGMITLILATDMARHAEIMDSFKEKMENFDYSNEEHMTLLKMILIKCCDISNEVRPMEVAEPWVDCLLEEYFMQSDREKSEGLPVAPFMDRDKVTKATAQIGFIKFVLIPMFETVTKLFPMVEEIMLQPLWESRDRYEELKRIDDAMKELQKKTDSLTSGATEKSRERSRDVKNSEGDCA

| SMILES | IC50 [1] [µM] | change in vivo at 10 mg/kg ([2]; Rattus norvegicus, 1 h) [%] | change in vivo at 10 mg/kg (cGMP in the hippocampus; Rattus norvegicus, 1 h) [%] | further results |
| --- | --- | --- | --- | --- |
| COc1cc(C)c(-c2ccc3c(c2)[nH]c(=O)c2cnn(C4CCOC4)c23)c(C)n1 (single isomer, unassigned; (-)) [29 (−), (−)-7-(6-methoxy-2,4-dimethylpyridin-3-yl)-1-(tetrahydrofuran-3-yl)-1H-pyrazolo[4,3-c]quinolin-4(5H)-one] | 0.0307 | – | – | change in vivo at 30 mg/kg ([2]; Rattus norvegicus, 1 h): 238%; change in vivo at 30 mg/kg (cGMP in the hippocampus; Rattus norvegicus, 1 h): 34% |
| COc1ncc(C)c(-c2ccc3c(c2)[nH]c(=O)c2cnn([C@H]4CCOC4)c23)c1C [26 S] | – | 274 | 58 | – |
| Cc1cc(C)c(-c2ccc3c(c2)[nH]c(=O)c2cnn(C4CCOCC4)c23)c(C)n1 [Example 2, 7-(2,4,6-trimethylpyridin-3-yl)-1-(tetrahydro-2H-pyran-4-yl)-1H-pyrazolo[4,3-c]quinolin-4(5H)-one] | 0.025 | – | – | % CSF cGMP increase from vehicle control [3]: 110% |
| COc1cc(C)c(-c2ccc3c(c2)[nH]c(=O)c2cnn(C4CCOCC4)c23)c(C)n1 [Example 3, 7-(6-methoxy-2,4-dimethylpyridin-3-yl)-1-(tetrahydro-2H-pyran-4-yl)-1H-pyrazolo[4,3-c]quinolin-4(5H)-one] | 0.014 | – | – | change in vivo at 10 mg/kg ([2]; Rattus norvegicus, 2 h): 186%; change in vivo at 10 mg/kg (cGMP in the hippocampus; Rattus norvegicus, 4 h): 32% |
| COc1nc(C)cc(C)c1-c1ccc2c(c1)[nH]c(=O)c1cnn(C3CCOCC3)c12 [Example 4, 7-(2-methoxy-4,6-dimethylpyridin-3-yl)-1-(tetrahydro-2H-pyran-4-yl)-1H-pyrazolo[4,3-c]quinolin-4(5H)-one] | 0.00437 | – | – | change in vivo at 30 mg/kg ([2]; Rattus norvegicus, 1 h): 246%; change in vivo at 30 mg/kg (cGMP in the hippocampus; Rattus norvegicus, 1 h): 25% |
| COc1ncc(C)c(-c2ccc3c(c2)[nH]c(=O)c2cnn(C4CCOCC4)c23)c1C [Example 15, 7-(2-methoxy-3,5-dimethylpyridin-4-yl)-1-(tetrahydro-2H-pyran-4-yl)-1H-pyrazolo[4,3-c]quinolin-4(5H)-one] | 0.00887 | – | – | change in vivo at 30 mg/kg [2, 4]: 203%; change in vivo at 30 mg/kg (cGMP in the hippocampus; [4]): 33% |
| Cc1cc(OC(F)F)nc(C)c1-c1ccc2c(c1)[nH]c(=O)c1cnn(C3CCOCC3)c12 [Example 18] | 0.0093 | – | – | change in vivo at 3 mg/kg ([2]; Rattus norvegicus, 1 h): 123% |
| COc1cc(C)c(-c2ccc3c(c2)[nH]c(=O)c2cnn(C4CCOCC4)c23)c(CF)n1 [Example 24] | 0.0187 | 149 | – | – |
| COc1ncc(C)c(-c2ccc3c(c2)[nH]c(=O)c2cnn(C4COCCOC4)c23)c1C [Example 43, 1-(1,4-dioxepan-6-yl)-7-(2-methoxy-3,5-dimethylpyridin-4-yl)-1H-pyrazolo[4,3-c]quinolin-4(5H)-one] | 0.0105 | 292 | 33 | – |
| Cc1cc(OC(C)C)nc(C)c1-c1ccc2c(c1)[nH]c(=O)c1cnn([C@H]3CCOC3)c12 [Example 51, (S)-7-(6-isopropyloxy-2,4-dimethylpyridin-3-yl)-1-(tetrahydrofuran-3-yl)-1H-pyrazolo[4,3-c]quinolin-4(5H)-one] | 0.00487 | 189 | 17 | – |
| COc1ncc(C)c(-c2cc3[nH]c(=O)c4cnn([C@H]5CCOC5)c4c3cc2F)c1C [Example 53, (S)-8-fluoro-7-(2-methoxy-3,5-dimethylpyridin-4-yl)-1-(tetrahydrofuran-3-yl)-1H-pyrazolo[4,3-c]quinolin-4(5H)-one] | 0.0101 | 202 | 27 | – |
| COc1nc(C)cc(C)c1-c1cc2[nH]c(=O)c3cnn([C@H]4CCOC4)c3c2cc1F [Example 54, (S)-8-fluoro-7-(2-methoxy-4,6-dimethylpyridin-3-yl)-1-(tetrahydrofuran-3-yl)-1H-pyrazolo[4,3-c]quinolin-4(5H)-one] | 0.00871 | 282 | 23 | – |
| COc1cc(C)c(-c2cc3[nH]c(=O)c4cnn([C@H]5CCOC5)c4c3cc2F)c(C)n1 [Example 55, (S)-8-fluoro-7-(6-methoxy-2,4-dimethylpyridin-3-yl)-1-(tetrahydrofuran-3-yl)-1H-pyrazolo[4,3-c]quinolin-4(5H)-one] | 0.0175 | 323 | 17 | – |
| CCOc1cc(C)c(-c2ccc3c(c2)[nH]c(=O)c2cnn([C@H]4CCOC4)c23)c(C)n1 [Example 62, (S)-7-(6-ethoxy-2,4-dimethylpyridin-3-yl)-1-(tetrahydrofuran-3-yl)-1H-pyrazolo[4,3-c]quinolin-4(5H)-one] | 0.0111 | – | – | change in vivo at 3 mg/kg ([2]; Rattus norvegicus, 1 h): 155% |
